Test [1] concerns the target Vascular endothelial growth factor receptor 2 (Homo sapiens, UniProt P35968). It is filed as functional.
Test [2] deals with T1, Muscarinic acetylcholine receptor M1 (Homo sapiens, UniProt P11229).
T1 sequence (P11229 whole entry): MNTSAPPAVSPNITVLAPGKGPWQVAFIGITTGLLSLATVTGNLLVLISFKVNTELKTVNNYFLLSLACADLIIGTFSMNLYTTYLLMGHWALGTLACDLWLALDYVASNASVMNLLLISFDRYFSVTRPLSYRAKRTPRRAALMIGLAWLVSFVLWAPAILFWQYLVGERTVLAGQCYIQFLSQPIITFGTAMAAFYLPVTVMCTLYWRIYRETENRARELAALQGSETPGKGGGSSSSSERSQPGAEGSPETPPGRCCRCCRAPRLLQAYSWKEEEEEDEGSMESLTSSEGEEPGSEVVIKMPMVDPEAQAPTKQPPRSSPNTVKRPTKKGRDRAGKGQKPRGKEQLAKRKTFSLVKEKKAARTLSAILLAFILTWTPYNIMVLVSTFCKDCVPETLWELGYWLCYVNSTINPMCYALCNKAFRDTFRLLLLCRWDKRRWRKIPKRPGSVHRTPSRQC
It is filed as functional, cell-based.

The next test deals with T2, Estrogen receptor (Homo sapiens, UniProt P03372).
T2 sequence (P03372 whole entry): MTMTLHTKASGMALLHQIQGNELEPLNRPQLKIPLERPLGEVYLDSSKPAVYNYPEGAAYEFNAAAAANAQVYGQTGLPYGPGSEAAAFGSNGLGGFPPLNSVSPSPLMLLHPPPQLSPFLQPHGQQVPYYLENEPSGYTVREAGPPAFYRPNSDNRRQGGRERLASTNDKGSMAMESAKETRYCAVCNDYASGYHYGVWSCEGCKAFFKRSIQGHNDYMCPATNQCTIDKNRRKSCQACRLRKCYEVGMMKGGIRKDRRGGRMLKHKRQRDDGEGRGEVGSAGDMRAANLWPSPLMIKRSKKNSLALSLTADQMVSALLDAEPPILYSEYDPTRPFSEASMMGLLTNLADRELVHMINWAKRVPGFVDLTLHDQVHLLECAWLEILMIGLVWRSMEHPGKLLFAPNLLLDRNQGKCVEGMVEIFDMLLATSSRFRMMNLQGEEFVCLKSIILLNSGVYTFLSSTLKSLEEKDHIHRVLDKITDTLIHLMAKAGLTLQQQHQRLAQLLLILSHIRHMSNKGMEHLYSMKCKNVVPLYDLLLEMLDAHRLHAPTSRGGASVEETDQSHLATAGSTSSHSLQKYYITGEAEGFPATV

For the next test, the target named is Adenosine receptor A2a (Homo sapiens, UniProt P29274).
In test [3] the target is T3, Cholecystokinin receptor type A (Homo sapiens, UniProt P32238).
T3 sequence (P32238 whole entry): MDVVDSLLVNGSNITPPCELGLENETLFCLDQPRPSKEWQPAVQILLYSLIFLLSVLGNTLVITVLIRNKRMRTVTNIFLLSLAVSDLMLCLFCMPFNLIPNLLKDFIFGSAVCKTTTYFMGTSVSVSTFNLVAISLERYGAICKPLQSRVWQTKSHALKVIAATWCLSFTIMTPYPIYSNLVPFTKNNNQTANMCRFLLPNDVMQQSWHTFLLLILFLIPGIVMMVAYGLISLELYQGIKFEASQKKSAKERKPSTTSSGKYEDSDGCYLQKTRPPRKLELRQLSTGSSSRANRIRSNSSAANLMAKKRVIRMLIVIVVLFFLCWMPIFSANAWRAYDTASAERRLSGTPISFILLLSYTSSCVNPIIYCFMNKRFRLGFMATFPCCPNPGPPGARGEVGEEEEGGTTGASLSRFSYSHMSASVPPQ

Test [4] concerns the target Neuronal acetylcholine receptor subunit alpha-4 (Homo sapiens, UniProt P43681).
For a further test, the target named is Vasopressin V2 receptor (Homo sapiens, UniProt P30518).
The target in another test is Cannabinoid receptor 1 (Homo sapiens, UniProt P21554). In kind it is functional, cell-based.
A further test addresses T4, Endothelin-1 receptor (Homo sapiens, UniProt P25101).
T4 sequence (P25101 whole entry): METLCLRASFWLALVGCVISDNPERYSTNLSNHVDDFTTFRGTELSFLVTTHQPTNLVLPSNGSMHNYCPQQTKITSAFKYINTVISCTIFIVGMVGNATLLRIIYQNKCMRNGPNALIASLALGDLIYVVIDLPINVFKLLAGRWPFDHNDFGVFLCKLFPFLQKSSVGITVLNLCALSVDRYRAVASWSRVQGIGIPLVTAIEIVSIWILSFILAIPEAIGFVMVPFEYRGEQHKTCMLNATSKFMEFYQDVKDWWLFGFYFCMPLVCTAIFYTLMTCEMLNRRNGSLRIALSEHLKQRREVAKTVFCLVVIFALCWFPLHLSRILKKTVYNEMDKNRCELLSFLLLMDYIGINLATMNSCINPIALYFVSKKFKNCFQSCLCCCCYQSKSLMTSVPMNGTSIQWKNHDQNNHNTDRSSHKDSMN

Test [5] concerns the target Growth hormone secretagogue receptor type 1 (Homo sapiens, UniProt Q92847).
Test [6] deals with T5, Alpha-2C adrenergic receptor (Homo sapiens, UniProt P18825).
T5 sequence (P18825 whole entry): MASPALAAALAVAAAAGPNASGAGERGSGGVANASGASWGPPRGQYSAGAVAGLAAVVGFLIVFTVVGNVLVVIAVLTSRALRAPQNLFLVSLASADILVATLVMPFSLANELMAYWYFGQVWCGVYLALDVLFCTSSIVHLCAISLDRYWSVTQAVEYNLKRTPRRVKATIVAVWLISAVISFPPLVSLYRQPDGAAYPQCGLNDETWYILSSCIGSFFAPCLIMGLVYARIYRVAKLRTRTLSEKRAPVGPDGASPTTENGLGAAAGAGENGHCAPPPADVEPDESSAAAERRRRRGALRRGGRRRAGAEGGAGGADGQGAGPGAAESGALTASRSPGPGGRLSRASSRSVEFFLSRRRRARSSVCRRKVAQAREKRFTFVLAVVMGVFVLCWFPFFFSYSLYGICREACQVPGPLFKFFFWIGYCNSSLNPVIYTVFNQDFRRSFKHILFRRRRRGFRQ
It is filed as functional.
Note: assay procedure not described here.

Sequence of Vascular endothelial growth factor receptor 2 (P35968 whole entry): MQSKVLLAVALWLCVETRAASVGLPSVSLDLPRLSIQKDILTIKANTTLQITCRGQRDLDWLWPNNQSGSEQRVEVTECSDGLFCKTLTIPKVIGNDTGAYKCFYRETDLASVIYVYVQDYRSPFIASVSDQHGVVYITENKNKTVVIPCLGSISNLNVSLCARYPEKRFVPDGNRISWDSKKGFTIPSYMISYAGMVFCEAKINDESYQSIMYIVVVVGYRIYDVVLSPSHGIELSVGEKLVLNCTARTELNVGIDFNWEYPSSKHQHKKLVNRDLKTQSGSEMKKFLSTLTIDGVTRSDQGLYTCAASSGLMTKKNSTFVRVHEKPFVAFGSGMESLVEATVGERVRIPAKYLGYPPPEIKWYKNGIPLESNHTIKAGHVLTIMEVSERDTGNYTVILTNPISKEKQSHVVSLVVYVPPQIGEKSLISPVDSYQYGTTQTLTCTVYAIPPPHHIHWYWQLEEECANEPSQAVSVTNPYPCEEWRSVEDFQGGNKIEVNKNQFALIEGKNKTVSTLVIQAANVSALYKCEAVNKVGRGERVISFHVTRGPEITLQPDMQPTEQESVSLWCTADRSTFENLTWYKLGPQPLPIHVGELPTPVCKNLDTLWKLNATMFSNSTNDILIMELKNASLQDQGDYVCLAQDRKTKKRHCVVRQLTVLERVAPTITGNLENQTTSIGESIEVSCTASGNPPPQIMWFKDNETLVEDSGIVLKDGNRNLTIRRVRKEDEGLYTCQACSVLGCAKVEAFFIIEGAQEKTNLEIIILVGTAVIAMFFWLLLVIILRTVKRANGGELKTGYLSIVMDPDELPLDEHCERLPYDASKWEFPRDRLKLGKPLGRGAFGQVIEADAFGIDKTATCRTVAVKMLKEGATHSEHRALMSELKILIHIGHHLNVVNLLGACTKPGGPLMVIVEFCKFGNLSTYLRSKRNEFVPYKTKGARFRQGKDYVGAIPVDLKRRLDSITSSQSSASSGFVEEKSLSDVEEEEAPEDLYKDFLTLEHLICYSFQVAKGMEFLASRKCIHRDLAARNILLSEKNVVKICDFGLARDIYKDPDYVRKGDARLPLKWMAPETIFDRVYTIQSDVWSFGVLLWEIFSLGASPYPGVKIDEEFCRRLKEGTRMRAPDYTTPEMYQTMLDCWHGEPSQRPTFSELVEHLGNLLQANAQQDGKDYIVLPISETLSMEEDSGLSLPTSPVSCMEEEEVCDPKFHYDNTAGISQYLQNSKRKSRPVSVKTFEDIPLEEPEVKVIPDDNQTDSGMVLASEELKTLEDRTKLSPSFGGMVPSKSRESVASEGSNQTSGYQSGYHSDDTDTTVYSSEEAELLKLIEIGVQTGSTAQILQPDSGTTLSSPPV
Sequence of Adenosine receptor A2a (P29274 whole entry): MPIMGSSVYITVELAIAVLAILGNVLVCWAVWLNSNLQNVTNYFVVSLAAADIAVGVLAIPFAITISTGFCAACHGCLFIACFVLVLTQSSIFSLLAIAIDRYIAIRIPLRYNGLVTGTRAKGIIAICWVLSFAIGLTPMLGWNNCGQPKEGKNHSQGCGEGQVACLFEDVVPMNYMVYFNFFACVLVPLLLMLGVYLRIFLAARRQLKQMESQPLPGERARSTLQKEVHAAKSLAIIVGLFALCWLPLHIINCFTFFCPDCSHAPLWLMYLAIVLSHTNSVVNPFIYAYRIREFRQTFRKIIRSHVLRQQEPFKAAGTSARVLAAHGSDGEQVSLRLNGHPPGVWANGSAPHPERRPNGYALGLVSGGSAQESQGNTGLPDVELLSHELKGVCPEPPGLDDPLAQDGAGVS
Sequence of Growth hormone secretagogue receptor type 1 (Q92847 whole entry): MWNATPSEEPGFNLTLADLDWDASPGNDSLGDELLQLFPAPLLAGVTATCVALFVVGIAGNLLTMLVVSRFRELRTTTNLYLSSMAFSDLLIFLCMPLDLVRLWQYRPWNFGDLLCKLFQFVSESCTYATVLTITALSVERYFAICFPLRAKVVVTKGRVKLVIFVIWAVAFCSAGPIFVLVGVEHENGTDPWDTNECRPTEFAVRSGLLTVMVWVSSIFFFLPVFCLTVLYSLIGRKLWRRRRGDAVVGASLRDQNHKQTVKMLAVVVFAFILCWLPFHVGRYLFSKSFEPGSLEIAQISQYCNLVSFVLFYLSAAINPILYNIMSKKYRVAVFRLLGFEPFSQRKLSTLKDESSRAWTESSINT
Sequence of Vasopressin V2 receptor (P30518 whole entry): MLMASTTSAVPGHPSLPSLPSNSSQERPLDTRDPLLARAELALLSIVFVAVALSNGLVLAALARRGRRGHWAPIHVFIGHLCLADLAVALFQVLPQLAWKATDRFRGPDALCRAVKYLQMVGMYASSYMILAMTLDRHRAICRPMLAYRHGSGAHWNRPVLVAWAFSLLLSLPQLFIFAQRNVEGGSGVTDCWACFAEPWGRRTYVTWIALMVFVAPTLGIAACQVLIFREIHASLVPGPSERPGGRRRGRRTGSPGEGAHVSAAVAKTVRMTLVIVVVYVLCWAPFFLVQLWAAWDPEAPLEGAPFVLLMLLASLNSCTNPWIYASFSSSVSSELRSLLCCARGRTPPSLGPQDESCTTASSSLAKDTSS
Sequence of Cannabinoid receptor 1 (P21554 whole entry): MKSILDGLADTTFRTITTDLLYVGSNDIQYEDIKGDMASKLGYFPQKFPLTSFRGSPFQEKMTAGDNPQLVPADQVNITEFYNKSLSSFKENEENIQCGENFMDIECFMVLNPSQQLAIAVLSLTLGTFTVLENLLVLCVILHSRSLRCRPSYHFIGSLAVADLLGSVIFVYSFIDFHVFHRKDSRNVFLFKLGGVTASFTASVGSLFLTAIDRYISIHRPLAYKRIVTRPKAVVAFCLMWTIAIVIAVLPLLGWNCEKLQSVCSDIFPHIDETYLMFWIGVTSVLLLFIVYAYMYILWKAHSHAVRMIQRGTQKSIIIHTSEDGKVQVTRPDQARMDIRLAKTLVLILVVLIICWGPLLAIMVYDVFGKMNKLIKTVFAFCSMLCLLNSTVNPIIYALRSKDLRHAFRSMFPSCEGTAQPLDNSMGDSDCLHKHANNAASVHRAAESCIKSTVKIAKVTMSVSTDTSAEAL
Sequence of Neuronal acetylcholine receptor subunit alpha-4 (P43681 whole entry): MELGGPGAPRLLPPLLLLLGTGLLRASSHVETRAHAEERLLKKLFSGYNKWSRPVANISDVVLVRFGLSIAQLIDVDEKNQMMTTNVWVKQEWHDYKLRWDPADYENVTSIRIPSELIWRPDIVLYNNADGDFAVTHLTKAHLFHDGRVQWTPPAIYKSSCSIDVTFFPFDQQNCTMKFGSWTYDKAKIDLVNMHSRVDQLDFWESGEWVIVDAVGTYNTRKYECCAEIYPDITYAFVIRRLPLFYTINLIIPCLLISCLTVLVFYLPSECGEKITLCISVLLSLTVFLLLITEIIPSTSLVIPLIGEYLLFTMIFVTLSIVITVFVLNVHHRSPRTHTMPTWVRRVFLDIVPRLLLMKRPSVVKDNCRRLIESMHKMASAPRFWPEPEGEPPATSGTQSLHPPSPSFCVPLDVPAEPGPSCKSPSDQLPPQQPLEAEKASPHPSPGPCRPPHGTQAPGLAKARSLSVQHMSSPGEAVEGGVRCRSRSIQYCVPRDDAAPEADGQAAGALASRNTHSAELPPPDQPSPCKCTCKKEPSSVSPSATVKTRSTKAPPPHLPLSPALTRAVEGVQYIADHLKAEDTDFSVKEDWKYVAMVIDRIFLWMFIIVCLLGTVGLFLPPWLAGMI

Broadly, the AC50 is the concentration at which the activity in the assay is half-maximal. A lower AC50 goes with greater potency. Take `COc1nccnc1NS(=O)(=O)c1ccc(N)cc1`: the concentration at half-maximal activity (AC50) in test [1] and in test [2] was over 30 µM each time.

Molecule `O=C(Nc1cccc2c(=O)cc(-c3nnn[nH]3)oc12)c1ccc(OCCCCc2ccccc2)cc1` gave an AC50 in test [2] of over 30 µM.

With `NC(=O)c1nc(F)c[nH]c1=O`, the AC50 (at Estrogen receptor; in [1]; in [2]) was over 30 µM throughout.

In the case of `CN(C)CCCN1C(=O)c2cc([N+](=O)[O-])ccc2Oc2ccccc21`, the half-maximal activity concentration (AC50) (on Estrogen receptor; in test [1]; in test [2]) was over 30 µM throughout.

Take `O=S(=O)(O)CCS` [2-MERCAPTOETHANESULFONIC ACID]: the concentration at half-maximal activity (AC50) (on Estrogen receptor; in test [1]) was over 30 µM in each case.

With `O=C(O)COc1nn(Cc2ccccc2)c2ccccc12` [BENDAZAC], the AC50 (at Estrogen receptor; in [1]; in [2]) was over 30 µM each time.

As to `Cc1ccc([C@@H]2O[C@H](CO)[C@@H](O)[C@H](O)[C@H]2O)cc1Cc1ccc(-c2ccc(F)cc2)s1` [CANAGLIFLOZIN ANHYDROUS], the AC50 (on Estrogen receptor; in test [1]; in [2]) was over 30 µM each time.

For the molecule `O=C(O)CCCc1ccc(N(CCCl)CCCl)cc1` [CHLORAMBUCIL], the AC50 (at Estrogen receptor; in [1]) was over 30 µM in each case.

For `CN(C)CCN(Cc1ccc(Cl)cc1)c1ccccn1` [CHLOROPYRAMINE], the half-maximal activity concentration (AC50) in [1] is over 30 µM.

With `O=C(O)c1cc(=O)c2ccccc2o1` [CHROMOCARB], the AC50 (at Estrogen receptor; in [1]; in test [2]) was over 30 µM each time.

For the molecule `CN(CC(=O)O)C(=N)N` [CREATINE], the concentration at half-maximal activity (AC50) (at Estrogen receptor; in test [1]; in test [2]) was over 30 µM throughout.

Consider `N[C@@H](CSSC[C@H](N)C(=O)O)C(=O)O` [CYSTINE], for which the concentration at half-maximal activity (AC50) in test [2] was over 30 µM.

For `Cn1c(=O)c2c(ncn2CC(O)CO)n(C)c1=O` (stereo unspecified) [DYPHYLLINE], the half-maximal activity concentration (AC50) (on Estrogen receptor; in [1]) was over 30 µM each time.

`C[C@]12CC[C@@H]3c4ccc(O)cc4CC[C@H]3[C@@H]1CC[C@@H]2OC(=O)CCC1CCCC1` [ESTRADIOL CYPIONATE]: the AC50 is 0.379 µM on Estrogen receptor, over 30 µM in test [1] and over 30 µM in test [2].

As for `CC1(C)O[C@@H]2C[C@H]3[C@@H]4CCC5=CC(=O)CC[C@]5(C)[C@@]4(F)[C@@H](O)C[C@]3(C)[C@]2(C(=O)CCl)O1` [HALCINONIDE], the AC50 (at Estrogen receptor; in test [1]) was over 30 µM each time.

With `C[C@]12CCC(=O)C=C1CC[C@@H]1[C@@H]2[C@@H](O)C[C@@]2(C)[C@H]1CC[C@]2(O)C(=O)COC(=O)CCC(=O)O` [HYDROCORTISONE HEMISUCCINATE ANHYDROUS], the half-maximal activity concentration (AC50) (on Estrogen receptor; in [1]; in test [2]) was over 30 µM throughout.

Take `N=C(N)NCc1cccc([123I])c1` [IOBENGUANE I 123]: the half-maximal activity concentration (AC50) (at Estrogen receptor; in [1]; in [2]) was over 30 µM throughout.

Take `CC(C)(N)C(=O)N[C@H](Cc1c[nH]c2ccccc12)C(=O)N[C@H](Cc1c[nH]c2ccccc12)NC=O` [MACIMORELIN]: the concentration at half-maximal activity (AC50) (at Estrogen receptor; in test [2]) was over 30 µM throughout.

As to `C=C1c2c(Cl)ccc(O)c2C(=O)C2=C(O)[C@]3(O)C(=O)C(C(N)=O)=C(O)[C@@H](N(C)C)[C@@H]3[C@@H](O)[C@H]12` [MECLOCYCLINE], the half-maximal activity concentration (AC50) (on Estrogen receptor; in test [1]; in [2]) was over 30 µM in each case.

In the case of `Cc1cc2c(OCC(O)CNC(C)C)cccc2[nH]1` (stereo unspecified) [MEPINDOLOL], the AC50 (on Estrogen receptor; in [1]; in test [2]) was over 30 µM each time.

For the molecule `CCOc1cc(N)c(Cl)cc1C(=O)NCC1CN(Cc2ccc(F)cc2)CCO1` (stereo unspecified) [MOSAPRIDE], the AC50 (at Estrogen receptor; in test [1]) was over 30 µM in each case.

Regarding `CN1CCC[C@H]1c1cccnc1` [NICOTINE], the concentration at half-maximal activity (AC50) (at Estrogen receptor; in test [1]) was over 30 µM in each case.

As to `C#C[C@]1(O)CC[C@H]2[C@@H]3CCC4=C(CCC(=O)C4)[C@H]3CC[C@@]21C` [NORETHYNODREL], the concentration at half-maximal activity (AC50) in test [1] was over 30 µM; in test [2], […].

With `CN(C)CCC(c1ccccc1)c1ccccn1` (stereo unspecified) [PHENIRAMINE], the AC50 in test [1] and in test [2] was over 30 µM in each case.

Take `CNC[C@H](O)c1cccc(O)c1` [PHENYLEPHRINE]: the AC50 is over 30 µM on Adenosine receptor A2a; over 30 µM in test [3]; over 10 µM in test [4]; over 30 µM on Vasopressin V2 receptor; over 30 µM at Cannabinoid receptor 1; over 30 µM at Endothelin-1 receptor. Moreover, the AC50 in [1], in test [5] and in test [2] was over 30 µM throughout.

As to `CC(C)COc1ccc(CNC(=O)N(Cc2ccc(F)cc2)C2CCN(C)CC2)cc1` [PIMAVANSERIN], the concentration at half-maximal activity (AC50) (on Estrogen receptor; in test [1]) was over 30 µM throughout.

On to `CCCCCCCCNC(C)C(O)c1ccc(SC(C)C)cc1` (stereo unspecified) [SULOCTIDIL], for which the AC50 at Estrogen receptor was 16.7 µM; in test [1], over 30 µM.

Take `CC1(C)O[C@@H]2[C@@H](CO[C@@]3(COS(N)(=O)=O)OC(C)(C)O[C@@H]23)O1` [TOPIRAMATE]: the AC50 was over 30 µM at Adenosine receptor A2a; over 10 µM in test [6]; over 30 µM in test [3]; over 10 µM in test [4]; over 30 µM at Estrogen receptor; over 30 µM on Vasopressin V2 receptor. The AC50 (on Cannabinoid receptor 1; on Endothelin-1 receptor; in test [5]; in [2]) was over 30 µM throughout.

With `CCCCCCCCCCCCCCCC(=O)OC/C=C(C)/C=C/C=C(C)/C=C/C1=C(C)CCCC1(C)C` [VITAMIN A PALMITATE], the AC50 in test [1] and in test [2] was over 30 µM in each case.

The record behind these values is ChEMBL document CHEMBL5291721, “A preclinical secondary pharmacology resource illuminates target-adverse drug reaction associations of marketed drugs” (Nat Commun, 2023).
